For orientation: pKi means the Ki on a negative log10 scale, so that one unit is a factor of ten.

For one data set, the target named is S. aureus TopoIV enzyme (Staphylococcus aureus, UniProt P0C1S7). Description: DNA Topo IV ATPase Assay. It counts as biochemical. Conditions: 30° C., read-out: Ki, Inhibition of S. aureus DNA Topo IV. The method, then: The conversion of ATP to ADP by S. aureus TopoIV enzyme is coupled to the conversion of NADH to NAD+, and the progress of the reaction is measured by the change in absorbance at 340 nm. TopoIV (64 nM) is incubated with the selected compound (3% DMSO final) in buffer for 10 minutes at 30° C. The buffer consists of 100 mM Tris 7.5, 1.5 mM MgCl2, 200 mM K•Glutamate, 2.5 mM phosphoenol pyruvate, 0.2 mM NADH, 1 mM DTT, 5 μg/mL linearized DNA, 50 μg/mL BSA, 30 μg/mL pyruvate kinase, and 10 μg/mL lactate dehyrodgenase (LDH). The reaction is initiated with ATP, and rates are monitored continuously for 20 minutes at 30° C. on a Molecular Devices SpectraMAX plate reader. The inhibition constant, Ki, and the IC50 are determined from plots of rate vs. concentration of selected compound fit to the Morrison Equation for tight binding inhibitors.

Data set [1] is described as follows: Stability data of solid forms on storage. It counts as physicochemical.
A further data set has as its target S. aureus DNA gyrase (Staphylococcus aureus, UniProt P0A0K8). Kind of data set: DNA Gyrase ATPase Assay. The class given is biochemical. The settings on record: 30° C., read-out: Ki, Inhibition of S. aureus DNA Gyrase. The method, then: The ATP hydrolysis activity of S. aureus DNA gyrase is measured by coupling the production of ADP through pyruvate kinase/lactate dehydrogenase to the oxidation of NADH. This method has been described previously (Tamura and Gellert, 1990, J. Biol. Chem., 265, 21342).
ATPase assays are carried out at 30° C. in buffered solutions containing 100 mM TRIS pH 7.6, 1.5 mM MgCl2, 150 mM KCl. The coupling system contains final concentrations of 2.5 mM phosphoenol pyruvate, 200 μM nicotinamide adenine dinucleotide (NADH), 1 mM DTT, 30 ug/ml pyruvate kinase, and 10 ug/ml lactate dehydrogenase. The enzyme (90 nM final concentration) and a DMSO solution (3% final concentration) of a compound is added. The reaction mixture is allowed to incubate for 10 minutes at 30° C. The reaction is initiated by the addition of ATP to a final concentration of 0.9 mM, and the rate of NADH disappearance is monitored at 340 nanometers over the course of 10 minutes. The Ki and IC50 values are determined from rate versus concentration profiles.

pKi: −log10 of the molar value.

As to `CCNC(=O)Nc1nc2cc(-c3cnc(C(C)(C)O)nc3)c(F)c([C@H]3CCCO3)c2[nH]1` [Compound 23, 1-ethyl-3-[6-fluoro-5-[2-(1-hydroxy-1-methyl-ethyl)pyrimidin-5-yl]-7-[(2R)-tetrahydrofuran-2-yl]-1H-benzimidazol-2-yl]urea], the pKi at S. aureus TopoIV enzyme was 7.92; at S. aureus DNA gyrase, 8.05. The “stability of solid form” value in data set [1] (40° C. with relative humidity of up to 75%) is given as “stable for at least one month”. In addition, in data set [1] (all storage conditions (25° C./60% RH, 40° C./ambient, and 40° C./75% RH), 1 month timepoint), the “chemical and physical stability” value was “chemically and physically stable”.

The values are drawn from patent US9040542B2, “Solid forms of gyrase inhibitor (R)-1-ethyl-3-[6-fluoro-5-[2-(1-hydroxy-1-methyl-ethyl)pryimidin-5-yl]-7-(tetrahydrofuran-2-yl)-1H-benzimidazol-2-yl]urea” (priority 2011, dated 2015).
